Assays:
hOB SFRP gene fragment = test: RADE (differential-display PCR) of hOB cell lines treated with osteogenic agents; format: cell-based, human; settings: 24 hr
Text: It can also be seen that the hOB-01-C1 cells express high basal levels of this gene.
The hOB SFRP gene fragment was identified using RADE (rapid analysis of differential expression) technology as described by Shiue 1997 Drug Develop. Res. 41: 142–159, the whole of which is incorporated herein. Three hOB cell lines (hOB-03-C5, hOB-03-CE6 and hOB-01-C1), representing three distinct stages of differentiation (proliferative, mature and preosteocytic, respectively) were used to isolate and identify SFRP. The hOB cell lines were established and cultured as previously described (Bodine et al. 1996 J. Bone Miner. Res. 11: 806–819; Bodine et al. 1996 Endocrinology 137: 4592–4604; Bodine et al. 1997 J. Cell. Biochem. 65: 368–387). […] However, in contrast to osteosarcoma cells (Stein and Lian 1993 Endocrine Rev. 14: 424–442), the hOB cell lines were faithful to the proliferation/differentiation relationship at the nonpermissive temperature (>37° C.) when the T-antigen mutant is inactivated. The cell lines were seeded into 150 mm dishes at ˜40,000 cells/cm^2 with growth medium [D-MEM/F-12 containing 10% (v/v) heat-inactivated fetal bovine serum (FBS), 1% (v/v) Penicillin-Streptomycin and 2 mM GlutaMAX-1] and incubated overnight at 34° C. […]

[1] = test system: hOB-03-C5, hOB-03-CE6 and hOB-01-C1 cells; test: hOB cell viability in serum-free medium, Coulter cell counter; format: cell-based, human; settings: 39° C.
Method: For these experiments, the cells were treated with either control or PGE2 (panels A & B) or control and TGF-β1 (panel C) in serum-free medium at 39° C. for 3 or 6 days. The results are presented as the % relative to the day 0 control (i.e., […] cells per well of a 6 well plate). The results of this experiment indicate that hOB cell viability declines over time in serum-free medium. In addition, for the hOB-03-C5 and hOB-03-CE6 cells, this rate of decline is accelerated by treatment with PGE2. This enhanced rate of cell death correlates with the upregulation of hOB SFRP mRNA levels in these cells following PGE2 treatment. […]
The next day, one set of plates were rinsed with PBS, trypsinized, and baseline cell number (and mean cell volume) was determined with a Coulter Multisizer as previously described in Bodine et al. 1996 J. Bone Miner. […] The other set of plates was placed at the non-permissive temperature of 39° C., and cell number was determined 6 days later (the medium was changed on day 3). […]
The hypothesis that up-regulation of SFRP-1/FRP-1/SARP-2 gene expression accelerates hOB cell death, while down-regulation of SFRP-1/FRP-1/SARP-2 gene expression suppresses cell death, was next examined. […] Finally, treatment of the hOB-03-C5 cells with PGE2 increased annexin V (a specific marker for apoptosis) binding to the cell as measured by flow cytometry (FIG. 11).

`CCCCC[C@H](O)/C=C/[C@H]1[C@H](O)CC(=O)[C@@H]1C/C=C\CCCC(=O)O` [PGE2, prostaglandin E2] was tested, and the “regulation of hOB SFRP gene fragment” value (hOB SFRP gene fragment; hOB-03-C5 and hOB-03-CE6 cell lines, 100 nM) was “strongly up-regulated” and the “fewer cells remaining alive versus control” value ([1]; hOB-03-C5 and hOB-03-CE6 cells, 100 nM, 6 days) was “over 40%”.
For “human transforming growth factor-β1 [TGF-β1]”, the “regulation of hOB SFRP gene fragment” value (hOB SFRP gene fragment; pre-osteocytic hOB-01-C1 cell line, 0.1 nM) was “down-regulated” and the “increase in cell viability” value ([1]; hOB-01-C1 cells, 0.01–1.0 nM, dose-dependent) was “about 2 fold”.

From patent publication US7098372B1, “Pharmaceutical compositions and methods of using secreted frizzled related protein” (Wyeth, priority 1999, dated 2006)
